Results as given in US8729078B2, “Inhibitors of bruton's tyrosine kinase” (Hoffmann-La Roche Inc., priority 2011, dated 2014).

Target: Btk (Homo sapiens (Human), UniProt Q06187)
Experiment: Bruton's Tyrosine Kinase (Btk) inhibition assay (FRET BTK)
Assay type: biochemical

Chain of Btk (Q06187 whole entry): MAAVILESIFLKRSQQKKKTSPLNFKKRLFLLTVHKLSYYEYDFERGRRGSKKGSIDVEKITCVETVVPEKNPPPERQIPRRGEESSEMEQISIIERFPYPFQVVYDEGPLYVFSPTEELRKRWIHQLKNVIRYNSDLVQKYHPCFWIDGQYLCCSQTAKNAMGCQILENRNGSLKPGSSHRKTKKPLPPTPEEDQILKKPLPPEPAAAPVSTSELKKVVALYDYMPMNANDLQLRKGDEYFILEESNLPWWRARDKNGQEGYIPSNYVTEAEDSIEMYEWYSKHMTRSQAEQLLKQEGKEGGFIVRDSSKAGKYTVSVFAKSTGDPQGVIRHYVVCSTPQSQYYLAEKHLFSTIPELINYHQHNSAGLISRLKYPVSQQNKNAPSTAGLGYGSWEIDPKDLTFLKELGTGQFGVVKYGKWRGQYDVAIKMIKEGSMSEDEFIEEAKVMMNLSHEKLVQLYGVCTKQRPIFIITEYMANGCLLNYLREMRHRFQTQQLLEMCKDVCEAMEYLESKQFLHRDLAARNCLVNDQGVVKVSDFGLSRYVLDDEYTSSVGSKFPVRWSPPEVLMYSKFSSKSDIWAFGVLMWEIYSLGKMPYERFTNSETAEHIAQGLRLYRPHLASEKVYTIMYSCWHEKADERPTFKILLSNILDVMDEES

Row | Compound | IC50
1 | Cn1cc(-c2cccc(-n3ccc4cc(C5CC5)cc(F)c4c3=O)c2CO)cc1C(N)=O [Compound I-13, 4-[3-(6-Cyclopropyl-8-fluoro-1-oxo-1H-isoquinolin-2-yl)-2-hydroxymethyl-phenyl]-1-methyl-1H-pyrrole-2-carboxylic acid amide] | 39.4 nM
2 | CC(C)(C)c1cc(F)c2c(=O)n(-c3cccc(-n4cc(C(N)=O)c(Nc5ccc(Cl)cn5)n4)c3CO)ncc2c1 [Compound I-23, 1-[3-(6-tert-Butyl-8-fluoro-1-oxo-1H-phthalazin-2-yl)-2-hydroxymethyl-phenyl]-3-(5-chloro-pyridin-2-ylamino)-1H-pyrazole-4-carboxylic acid amide] | 0.29 nM
3 | CC(C)(CN1CCC1)Oc1ccc(Nc2nn(-c3cccc(-n4ncc5cc(C(C)(C)C)cc(F)c5c4=O)c3CO)cc2C(N)=O)nc1 [Compound I-24, 3-[5-(2-Azetidin-1-yl-1,1-dimethyl-ethoxy)-pyridin-2-ylamino]-1-[3-(6-tert-butyl-8-fluoro-1-oxo-1H-phthalazin-2-yl)-2-hydroxymethyl-phenyl]-1H-pyrazole-4-carboxylic acid amide] | 0.18 nM
4 | CN1CCn2nc(Nc3nn(-c4cccc(-n5ncc6cc(C(C)(C)C)cc(F)c6c5=O)c4CO)cc3C(N)=O)cc2C1 [Compound I-25, 1-[3-(6-tert-Butyl-8-fluoro-1-oxo-1H-phthalazin-2-yl)-2-hydroxymethyl-phenyl]-3-(5-methyl-4,5,6,7-tetrahydro-pyrazolo[1,5-a]pyrazin-2-ylamino)-1H-pyrazole-4-carboxylic acid amide] | 0.09 nM
5 | CC(C)(C)c1cc(F)c2c(=O)n(-c3cccc(-n4cc(C(N)=O)c(Nc5ccccn5)n4)c3CO)ncc2c1 [Compound I-26, 1-[3-(6-tert-Butyl-8-fluoro-1-oxo-1H-phthalazin-2-yl)-2-hydroxymethyl-phenyl]-3-(pyridin-2-ylamino)-1H-pyrazole-4-carboxylic acid amide] | 0.36 nM
6 | Cn1ccc(Nc2nn(-c3cccc(-n4ncc5cc(C(C)(C)C)cc(F)c5c4=O)c3CO)cc2C(N)=O)n1 [Compound I-28, 1-[3-(6-tert-Butyl-8-fluoro-1-oxo-1H-phthalazin-2-yl)-2-hydroxymethyl-phenyl]-3-(1-methyl-1H-pyrazol-3-ylamino)-1H-pyrazole-4-carboxylic acid amide] | 0.22 nM
7 | CC(C)(C)c1cc(F)c2c(=O)n(-c3cccc(-n4cc(C(N)=O)c(Nc5cnccn5)n4)c3CO)ncc2c1 [Compound I-29, 1-[3-(6-tert-Butyl-8-fluoro-1-oxo-1H-phthalazin-2-yl)-2-hydroxymethyl-phenyl]-3-(pyrazin-2-ylamino)-1H-pyrazole-4-carboxylic acid amide] | 0.43 nM
8 | CC(C)(C)c1cc(F)c2c(=O)n(-c3cccc(-n4cc(C(N)=O)c(Nc5ccc(F)cn5)n4)c3CO)ncc2c1 [Compound I-30, 1-[3-(6-tert-Butyl-8-fluoro-1-oxo-1H-phthalazin-2-yl)-2-hydroxymethyl-phenyl]-3-(5-fluoro-pyridin-2-ylamino)-1H-pyrazole-4-carboxylic acid amide] | 0.24 nM
9 | Cc1cc(Nc2nn(-c3cccc(-n4ncc5cc(C(C)(C)C)cc(F)c5c4=O)c3CO)cc2C(N)=O)nn1C [Compound I-31, 1-[3-(6-tert-Butyl-8-fluoro-1-oxo-1H-phthalazin-2-yl)-2-hydroxymethyl-phenyl]-3-(1,5-dimethyl-1H-pyrazol-3-ylamino)-1H-pyrazole-4-carboxylic acid amide] | 0.29 nM
10 | CC(C)(C)c1cc(F)c2c(=O)n(-c3cccc(-n4cc(C(N)=O)c(Nc5ccc(C(F)(F)F)cn5)n4)c3CO)ncc2c1 [Compound I-32, 1-[3-(6-tert-Butyl-8-fluoro-1-oxo-1H-phthalazin-2-yl)-2-hydroxymethyl-phenyl]-3-(5-trifluoromethyl-pyridin-2-ylamino)-1H-pyrazole-4-carboxylic acid amide] | 0.57 nM
11 | Cc1ccc(Nc2nn(-c3cccc(-n4ncc5cc(C(C)(C)C)cc(F)c5c4=O)c3CO)cc2C(N)=O)nc1 [Compound I-33, 1-[3-(6-tert-Butyl-8-fluoro-1-oxo-1H-phthalazin-2-yl)-2-hydroxymethyl-phenyl]-3-(5-methyl-pyridin-2-ylamino)-1H-pyrazole-4-carboxylic acid amide] | 0.24 nM
12 | Cc1cc(Nc2nn(-c3cccc(-n4ncc5cc(C(C)(C)C)ccc5c4=O)c3CO)cc2C(N)=O)nn1C [Compound I-34, 1-[3-(6-tert-Butyl-1-oxo-1H-phthalazin-2-yl)-2-hydroxymethyl-phenyl]-3-(1,5-dimethyl-1H-pyrazol-3-ylamino)-1H-pyrazole-4-carboxylic acid amide] | 0.51 nM
13 | CC(C)(C)c1ccc2c(=O)n(-c3cccc(-n4cc(C(N)=O)c(Nc5cnccn5)n4)c3CO)ncc2c1 [Compound I-36, 1-[3-(6-tert-Butyl-1-oxo-1H-phthalazin-2-yl)-2-hydroxymethyl-phenyl]-3-(pyrazin-2-ylamino)-1H-pyrazole-4-carboxylic acid amide] | 0.83 nM
14 | Cc1ccc(Nc2nn(-c3cccc(-n4ncc5cc(C(C)(C)C)ccc5c4=O)c3CO)cc2C(N)=O)nc1 [Compound I-37, 1-[3-(6-tert-Butyl-1-oxo-1H-phthalazin-2-yl)-2-hydroxymethyl-phenyl]-3-(5-methyl-pyridin-2-ylamino)-1H-pyrazole-4-carboxylic acid amide] | 1.13 nM

The remaining lines, values ahead:

Row | IC50 | Compound
15 | 0.17 nM | CC(C)(C)c1cc(F)c2c(=O)n(-c3cccc(-n4cc(C(N)=O)c(Nc5ccc(S(C)(=O)=O)cn5)n4)c3CO)ncc2c1 [Compound I-38, 1-[3-(6-tert-Butyl-8-fluoro-1-oxo-1H-phthalazin-2-yl)-2-hydroxymethyl-phenyl]-3-(5-methanesulfonyl-pyridin-2-ylamino)-1H-pyrazole-4-carboxylic acid amide]
16 | 0.18 nM | CC(C)(C)c1cc(F)c2c(=O)n(-c3cccc(-n4cc(C(N)=O)c(Nc5ccc(C#N)cn5)n4)c3CO)ncc2c1 [Compound I-39, 1-[3-(6-tert-Butyl-8-fluoro-1-oxo-1H-phthalazin-2-yl)-2-hydroxymethyl-phenyl]-3-(5-cyano-pyridin-2-ylamino)-1H-pyrazole-4-carboxylic acid amide]
17 | 333 nM | CC(C)(C)c1cc(F)c2c(=O)n(-c3cccc(-n4ccc(C(N)=O)n4)c3CO)ncc2c1 [Compound I-40, 1-[3-(6-tert-Butyl-8-fluoro-1-oxo-1H-phthalazin-2-yl)-2-hydroxymethyl-phenyl]-1H-pyrazole-3-carboxylic acid amide]
18 | 268 nM | CC(C)(C)c1cc(F)c2c(=O)n(-c3cccc(-n4cc(C(N)=O)cn4)c3CO)ncc2c1 [Compound I-41, 1-[3-(6-tert-Butyl-8-fluoro-1-oxo-1H-phthalazin-2-yl)-2-hydroxymethyl-phenyl]-1H-pyrazole-4-carboxylic acid amide]
19 | 7.32 nM | CC(C)(C)c1cc(F)c2c(=O)n(-c3cccc(-n4cc(C(N)=O)c5cncnc54)c3CO)ncc2c1 [Compound I-42, 7-[3-(6-tert-Butyl-8-fluoro-1-oxo-1H-phthalazin-2-yl)-2-hydroxymethyl-phenyl]-7H-pyrrolo[2,3-d]pyrimidine-5-carboxylic acid amide]
20 | 2.83 nM | CN1CCN(c2ccc3c(C(N)=O)cn(-c4cccc(-n5ncc6cc(C(C)(C)C)cc(F)c6c5=O)c4CO)c3n2)CC1 [Compound I-43, 1-[3-(6-tert-Butyl-8-fluoro-1-oxo-1H-phthalazin-2-yl)-2-hydroxymethyl-phenyl]-6-(4-methyl-piperazin-1-yl)-1H-pyrrolo[2,3-b]pyridine-3-carboxylic acid amide]
21 | 10.3 nM | CC(C)(C)c1cc(F)c2c(=O)n(-c3cccc(-n4cc(C(N)=O)c5ccc(N6CCOCC6)nc54)c3CO)ncc2c1 [Compound I-44, 1-[3-(6-tert-Butyl-8-fluoro-1-oxo-1H-phthalazin-2-yl)-2-hydroxymethyl-phenyl]-6-morpholin-4-yl-1H-pyrrolo[2,3-b]pyridine-3-carboxylic acid amide]
22 | 11 nM | CCOc1ccc(-c2ccc3c(C(N)=O)cn(-c4cccc(-n5ncc6cc(C(C)(C)C)cc(F)c6c5=O)c4CO)c3n2)cn1 [Compound I-45, 1-[3-(6-tert-Butyl-8-fluoro-1-oxo-1H-phthalazin-2-yl)-2-hydroxymethyl-phenyl]-6-(6-ethoxy-pyridin-3-yl)-1H-pyrrolo[2,3-b]pyridine-3-carboxylic acid amide]
23 | 14.3 nM | CC(C)(C)c1cc(F)c2c(=O)n(-c3cccc(-n4cc(C(N)=O)c5ccc(-c6ccccc6F)nc54)c3CO)ncc2c1 [Compound I-46, 1-[3-(6-tert-Butyl-8-fluoro-1-oxo-1H-phthalazin-2-yl)-2-hydroxymethyl-phenyl]-6-(2-fluoro-phenyl)-1H-pyrrolo[2,3-b]pyridine-3-carboxylic acid amide]
24 | 28.4 nM | CC(C)(C)c1cc(F)c2c(=O)n(-c3cccc(-n4cc(C(N)=O)c5ccc(-c6ccccc6Cl)nc54)c3CO)ncc2c1 [Compound I-47, 1-[3-(6-tert-Butyl-8-fluoro-1-oxo-1H-phthalazin-2-yl)-2-hydroxymethyl-phenyl]-6-(2-chloro-phenyl)-1H-pyrrolo[2,3-b]pyridine-3-carboxylic acid amide]
25 | 7.74 nM | CC(C)(C)c1cc(F)c2c(=O)n(-c3cccc(-n4cc(C(N)=O)c5ccc(Br)nc54)c3CO)ncc2c1 [Compound I-48, 6-Bromo-1-[3-(6-tert-butyl-8-fluoro-1-oxo-1H-phthalazin-2-yl)-2-hydroxymethyl-phenyl]-1H-pyrrolo[2,3-b]pyridine-3-carboxylic acid amide]
26 | 13.9 nM | CC(C)(C)c1cc(F)c2c(=O)n(-c3cccc(-n4cc(C(N)=O)c5ccc(C(O)CO)nc54)c3CO)ncc2c1 (stereo not drawn) [Compound I-49, 1-[3-(6-tert-Butyl-8-fluoro-1-oxo-1H-phthalazin-2-yl)-2-hydroxymethyl-phenyl]-6-(1,2-dihydroxy-ethyl)-1H-pyrrolo[2,3-b]pyridine-3-carboxylic acid amide]
27 | 12.7 nM | CC(C)(C)c1cc(F)c2c(=O)n(-c3cccc(-n4cc(C(N)=O)c5ccc(N6CCS(=O)(=O)CC6)nc54)c3CO)ncc2c1 [Compound I-50, 1-[3-(6-tert-Butyl-8-fluoro-1-oxo-1H-phthalazin-2-yl)-2-hydroxymethyl-phenyl]-6-(1,1-dioxo-1λ^6-thiomorpholin-4-yl)-1H-pyrrolo[2,3-b]pyridine-3-carboxylic acid amide]
